Data published in paper PMC5459446, “A phase I study of single-agent perifosine for recurrent or refractory pediatric CNS and solid tumors” (PLoS ONE, 2017).
Structures can show the parent of a compound that is named as a salt.

What was measured:
[1] = test system: pediatric patients with recurrent or refractory CNS and solid tumors; assay: Phase I dose-escalation toxicity assessment (Common Toxicity Criteria v3.0, DLT, MTD); assay type: in vivo
Procedure: This was a standard 3+3 phase I dose escalation study (NCT00776867) investigating 5 dose levels. Perifosine was only available as 50-mg tablets, complicating the phase I dose escalation scheme. A loading dose was administered on day 1 and subsequent maintenance doses were administered every 1 to 4 days, depending on dose level and BSA, with the goal of achieving dose levels of 25, 50, 75, 100, and 125 mg/m^2/day (Tables 1–5). This dosing scheme, incorporating drug administration as infrequently as every 4 days, was made possible by perifosine’s long half-life. Treatment was continued until disease progression, intolerable toxicity, DLT, or death was encountered. Subjects experiencing DLT but with evidence of clinical benefit at dose level 1, 2, or 3 were eligible to remain on study with a dose level reduction. […]
Toxicity was assessed according to the Common Toxicity Criteria (version 3.0) of the National Cancer Institute, National Institutes of Health. DLT was defined as (1) any non-hematological toxicity grade ≥ 3 [except for grade 3 nausea, vomiting, and diarrhea that could be controlled within 24 hours with supportive care measures]; (2) grade 4 neutropenia on 2 consecutive blood counts drawn at least 72 hours apart; (3) grade 4 febrile neutropenia [ANC < 1000/μL and fever ≥ 38.5°C] or grade ≥ 3 documented infection with ANC < 1000/μL, or; (4) a platelet count < 25,000/μL. Grade ≥ 3 decrease in hemoglobin that could be corrected to at least 8 g/dl (grade 2) by transfusion of red blood cells, grade ≥ 3 leukopenia in the absence of dose-limiting neutropenia, and grade ≥ 3 lymphopenia were not considered DLTs.
The DLT assessment period was the first 28-day cycle. If therapy was discontinued during the first cycle for reasons other than toxicity, an additional subject could be enrolled at that dose level to ensure adequate evaluation of toxicity. No intra-patient dose escalation was permitted.

[2] = design: method as in PMID 25740692; details: oral, adult non-tumor bearing rhesus monkeys, cerebrospinal fluid; cited from earlier work
[3] = test system: mouse brainstem glioma model; design: method as in PMID 25712742; details: doses demonstrated to be effective in cell culture; cited from earlier work
mTOR pathway / autophagy = test system: mTOR pathway / autophagy; design: method as in PMID 19920197; details: doses as low as; cited from earlier work
[4] = 23 patients, all dose levels, at least possibly related
[5] = 23 patients, all dose levels, at least possibly related, listed as Perifosine

Structure (SMILES): CCCCCCCCCCCCCCCCCCOP(=O)([O-])OC1CC[N+](C)(C)CC1 [perifosine, 1,1-Dimethyl-4-[[(octadecyloxy)hydroxyphosphinyl]oxy]-piperidinium inner salt]
- MTD ([1]; 5 dose levels, 25 to 125 mg/m2/day): not defined
- ALT, Any Grade, % [1, 4]: 39.13%
- ALT, Any Grade, No. [1, 4]: 9
- ALT, Grade 3 or 4, % [1, 4]: 0.00%
- ALT, Grade 3 or 4, No. [1, 4]: 0
- AST, Any Grade, % [1, 4]: 26.09%
- AST, Any Grade, No. [1, 4]: 6
- AST, Grade 3 or 4, % [1, 4]: 0.00%
- Decreased hemoglobin, Grade 3 or 4, % [1, 4]: 0.00%
- Decreased hemoglobin, Grade 3 or 4, No. [1, 4]: 0
- Decreased leukocytes, Any Grade, % [1, 4]: 47.83%
- Decreased leukocytes, Any Grade, No. [1, 4]: 11
- Decreased leukocytes, Grade 3 or 4, % [1, 4]: 0.00%
- Decreased leukocytes, Grade 3 or 4, No. [1, 4]: 0
- Decreased neutrophils (neutropenia), Grade 3 or 4, % [1, 4]: 8.7%
- Decreased neutrophils, Any Grade, % [1, 4]: 26.09%
- Decreased neutrophils, Any Grade, No. [1, 4]: 6
- Decreased neutrophils, Grade 3 or 4, No. [1, 4]: 2
- Decreased platelets, Any Grade, % [1, 4]: 21.74%
- Decreased platelets, Any Grade, No. [1, 4]: 5
- Decreased platelets, Grade 3 or 4, % [1, 4]: 0.00%
- Decreased platelets, Grade 3 or 4, No. [1, 4]: 0
- Diarrhea, Any Grade, % [1, 4]: 43.48%
- Diarrhea, Any Grade, No. [1, 4]: 10
- Diarrhea, Grade 3 or 4, % [1, 4]: 0.00%
- Diarrhea, Grade 3 or 4, No. [1, 4]: 0
- Fatigue, Any Grade, % [1, 4]: 65.22%
- Fatigue, Any Grade, No. [1, 4]: 15
- Fatigue, Grade 3 or 4, % [1, 4]: 4.35%
- Fatigue, Grade 3 or 4, No. [1, 4]: 1
- Fever, Any Grade, % [1, 4]: 21.74%
- Fever, Any Grade, No. [1, 4]: 5
- Fever, Grade 3 or 4, % [1, 4]: 4.35%
- Fever, Grade 3 or 4, No. [1, 4]: 1
- Flatulence, Any Grade, % [1, 4]: 13.04%
- Flatulence, Any Grade, No. [1, 4]: 3
- Flatulence, Grade 3 or 4, % [1, 4]: 0.00%
- Flatulence, Grade 3 or 4, No. [1, 4]: 0
- Hyperglycemia, Any Grade, % [1, 4]: 60.87%
- Hyperglycemia, Any Grade, No. [1, 4]: 14
- Hyperglycemia, Grade 3 or 4, % [1, 4]: 4.35%
- Hyperglycemia, Grade 3 or 4, No. [1, 4]: 1
- Hyperuricemia, Any Grade, % [1, 4]: 4.35%
- Hyperuricemia, Any Grade, No. [1, 4]: 1
- Hyperuricemia, Grade 3 or 4, % [1, 4]: 4.35%
- Hyperuricemia, Grade 3 or 4, No. [1, 4]: 1
- Hypocalcemia, Any Grade, % [1, 4]: 21.74%
- Hypocalcemia, Any Grade, No. [1, 4]: 5
- Hypocalcemia, Grade 3 or 4, % [1, 4]: 0.00%
- Hypocalcemia, Grade 3 or 4, No. [1, 4]: 0
- Hypokalemia, Any Grade, % [1, 4]: 21.74%
- Hypokalemia, Any Grade, No. [1, 4]: 5
- Hypokalemia, Grade 3 or 4, % [1, 4]: 0.00%
- Hypokalemia, Grade 3 or 4, No. [1, 4]: 0
- Hypomagnesemia, Any Grade, % [1, 4]: 13.04%
- Hypomagnesemia, Any Grade, No. [1, 4]: 3
- Hypomagnesemia, Grade 3 or 4, % [1, 4]: 0.00%
- Hypomagnesemia, Grade 3 or 4, No. [1, 4]: 0
- Hyponatremia, Any Grade, % [1, 4]: 21.74%
- Hyponatremia, Any Grade, No. [1, 4]: 5
- Hyponatremia, Grade 3 or 4, % [1, 4]: 0.00%
- Hyponatremia, Grade 3 or 4, No. [1, 4]: 0
- Hypophosphatemia, Any Grade, % [1, 4]: 13.04%
- Hypophosphatemia, Any Grade, No. [1, 4]: 3
- Hypophosphatemia, Grade 3 or 4, % [1, 4]: 0.00%
- Hypophosphatemia, Grade 3 or 4, No. [1, 4]: 0
- Infection URI, Any Grade, % [1, 4]: 17.39%
- Infection URI, Any Grade, No. [1, 4]: 4
- Infection URI, Grade 3 or 4, % [1, 4]: 0.00%
- Infection URI, Grade 3 or 4, No. [1, 4]: 0
- Infection—catheter related, Any Grade, % [1, 4]: 4.35%
- Infection—catheter related, Any Grade, No. [1, 4]: 1
- Infection—catheter related, Grade 3 or 4, % [1, 4]: 4.35%
- Infection—catheter related, Grade 3 or 4, No. [1, 4]: 1
- Lymphopenia, Any Grade, % [1, 4]: 17.39%
- Lymphopenia, Any Grade, No. [1, 4]: 4
- Lymphopenia, Grade 3 or 4, % [1, 4]: 0.00%
- Lymphopenia, Grade 3 or 4, No. [1, 4]: 0
- Nausea, Any Grade, % [1, 4]: 65.22%
- Nausea, Any Grade, No. [1, 4]: 15
- Nausea, Grade 3 or 4, % [1, 4]: 0.00%
- Nausea, Grade 3 or 4, No. [1, 4]: 0
- Pain—abdomen NOS, Any Grade, % [1, 4]: 21.74%
- Pain—abdomen NOS, Any Grade, No. [1, 4]: 5
- Pain—abdomen NOS, Grade 3 or 4, % [1, 4]: 0.00%
- Pain—abdomen NOS, Grade 3 or 4, No. [1, 4]: 0
- Pain—stomach, Any Grade, % [1, 4]: 13.04%
- Pain—stomach, Any Grade, No. [1, 4]: 3
- Pain—stomach, Grade 3 or 4, % [1, 4]: 0.00%
- Pain—stomach, Grade 3 or 4, No. [1, 4]: 0
- Vomiting, Any Grade, % [1, 4]: 56.52%
- Vomiting, Any Grade, No. [1, 4]: 13
- Vomiting, Grade 3 or 4, % [1, 4]: 0.00%
- Vomiting, Grade 3 or 4, No. [1, 4]: 0
- Decreased leukocytes, Any Grade, % [1, 5]: 47.8%
- Fatigue, Any Grade, % [1, 5]: 65.2%
- Hyperglycemia, Any Grade, % [1, 5]: 60.9%
- Nausea, Any Grade, % [1, 5]: 65.2%
- Vomiting, Any Grade, % [1, 5]: 56.5%
- Number of DLTs ([1]; grade 4 hyperuricemia at dose level 4, 23 patients, 5 dose levels): one
- AST, Grade 3 or 4, No. ([1]; human, in vivo): 0
- Anorexia, Any Grade, % ([1]; human, in vivo): 30.43%
- Anorexia, Any Grade, No. ([1]; human, in vivo): 7
- Anorexia, Grade 3 or 4, % ([1]; human, in vivo): 0.00%
- Anorexia, Grade 3 or 4, No. ([1]; human, in vivo): 0
- Constipation, Any Grade, % ([1]; human, in vivo): 13.04%
- Constipation, Any Grade, No. ([1]; human, in vivo): 3
- Constipation, Grade 3 or 4, % ([1]; human, in vivo): 0.00%
- Constipation, Grade 3 or 4, No. ([1]; human, in vivo): 0
- Decreased hemoglobin, Any Grade, % ([1]; human, in vivo): 43.48%
- Decreased hemoglobin, Any Grade, No. ([1]; human, in vivo): 10
- CNS penetration [2]: limited
- Acute toxicity after convection enhanced delivery [3]: no serious acute toxicities
- Lowest dose degrading mTOR pathway components and inducing autophagy (mTOR pathway / autophagy): 5 µM
